Melting point data for 87 molecules are collected here from a melting point compilation (Tetko et al.; mined from patent text by program, amines drawn as free bases though some values may be those of a salt).

The structures appear in SMILES notation.

What is called melting point is the temperature of the solid-liquid transition. Consider `COC(=O)c1ccc(OCc2cccc(OCc3ccc4ccccc4n3)c2)c(OC)c1`, for which the melting point fell in the range of 100 to 101 °C. With `CSc1nc(Cl)cc(N(C)C)n1`, the melting point was determined as 102 °C. `CC(C)(C)OC(=O)N1CCC(Oc2ccc(C#N)c(/C=C/N3CCCC3)c2)CC1` displayed a melting point of 115 to 117 °C.

The molecule `Oc1cccc(C2CCCN2Cc2ccccn2)c1` (configuration not stated) came in with a melting point of 96 to 98 °C. Molecule `O=C(O)CCCc1cc2nc(Cl)ccc2n1S(=O)(=O)c1ccc2c(c1)OC(F)(F)O2` had a melting point of 216 °C. As to `CC1(C(=O)N2C[C@H](Sc3ccc(OCC(F)(F)F)cc3C(F)(F)F)C[C@H]2C(=O)NC2(C#N)CC2)CC1`, the melting point was 66 to 76 °C.

For `CN(C)C(=O)Oc1cccc2c1CN(Nc1ccncc1)C2`, the melting point lay within 183 to 185 °C. As for `CC(=O)Nc1cc(Br)ccc1C(=O)O`, the melting point turned out to be 220 °C.

`N#Cc1cc(NC(=O)c2cc3ccccc3s2)ccc1N1CCCCC1` yielded a melting point of 219 to 245 °C.

Consider `Cc1cc(C#N)ccc1-c1cccc(-c2nc3cc(C#N)ccc3[nH]2)c1`, for which the melting point was 247 to 250 °C. With `OCCNC(=S)Nc1cccc2ccoc12`, the melting point was in the range of 138 to 139 °C. For `CC(C)C1(C)N=C(c2ncc(C3CC3)cc2C(=O)O)NC1=O` (configuration not stated), the melting point fell in the range of 157 to 163 °C.

`CCOC(=O)CC(C)(C)CC(=O)C1CC2=C(CC(C)(C)CC2)N(C2CCCCC2)C1` (configuration not stated) had a melting point of 44 to 46 °C. The result for `CC(=O)Oc1ccc(N)cc1C(=O)O` reads 133 to 136 °C; that for `COc1ccc(Cl)cc1C(=O)Nc1ccc(CCC(=O)O)cc1`, 188 to 190 °C; that for `CCCOc1ccc2c(c1)C(c1ccc(OC)cc1OCC(=O)O)CC2c1ccc2c(c1)OCO2` (configuration not stated), 177 to 178 °C. The result for `O=C(NC(=O)c1ccco1)NC1CCN(Cc2ccc3ccccc3c2)CC1` reads 157 to 159 °C; that for `N#Cc1cnn2c1N(C(=O)CCCl)CC=C2c1cccc(C(F)(F)F)c1`, 183 to 185 °C. With `O=C(O)CC(C(=O)O)c1ccn2c(=O)c(C(=O)O)ccc2c1` (configuration not stated), the melting point stood at 250 °C.

The molecule `COc1cc2c(cc1Nc1ncc(Cl)c(Nc3ccccc3S(=O)(=O)N(C)C)n1)N(CC(=O)N(C)C)C(=O)CN(CC(=O)N(C)C)C2` registered a melting point of 154 °C.

On to `COC(=O)C(O)C(CC(C)C)NCc1ccccc1` (configuration not stated), for which the melting point fell in the range of 89 to 90 °C. As for `O=C(O)CCCCc1cc(O)c(O)c([N+](=O)[O-])c1`, the melting point lay in the range of 135 to 138 °C. The result for `N=c1sc2cc(OC(F)(F)F)ccc2n1CCSc1ccncc1` reads 143 °C; that for `Cc1cc([N+](=O)[O-])c(NC(C)C)c([N+](=O)[O-])c1NC(C)C`, 96 to 97 °C. The result for `Cc1cc(N(C)C)ccc1Br` reads 47 to 49 °C; that for `CC(C)(C)OC(=O)N1CCN(CCC(N)=O)CC1`, 96 to 98 °C. Molecule `Fc1cc(CNC(=S)NCC(F)(F)F)ccc1OCC(F)(F)F` came in with a melting point of 88 to 90 °C.

`O=C(O)CN1C(=O)C(=Cc2ccc(OCc3ccc(F)cc3F)c(OCc3ccc(F)cc3F)c2)SC1=S`: the melting point was 251 to 254 °C. Take `CC1(C)CC(=O)N(c2ccc(OC(=O)N3CCc4ccccc4C3)nc2)C(=O)C1`: the melting point is 156 to 158 °C. As for `CCOC(=O)NNC(=O)NCCCCl`, the melting point fell in the range of 105 to 106 °C. The result for `CCOC(=O)COc1cccc2c1OCC2=O` reads 89 to 90 °C; that for `COC(=O)c1cc(Oc2cccnc2)c(C(F)(F)F)cc1[N+](=O)[O-]`, 98 to 100 °C. The result for `CC(C)[C@@H]1CC[C@@H](C)C[C@H]1O[C@@H]1OC(=O)[C@@H]2[C@H]1C2(C)C` reads 82 °C; that for `O=C(NCc1c[nH]c(=S)n1[C@H]1CCc2c(F)cc(F)cc2C1)c1ccccn1`, 216 to 217 °C.

Molecule `C=CCc1ccc(CCNC(=O)c2cc(Cl)ccc2OC)cc1S(=O)(=O)NC(=O)NC` gave a melting point of 124 to 126 °C. As for `COc1ccc(N(C(=O)CN2C(=O)C(CO)C(=O)N(c3ccccc3)c3ccccc32)C(C)C)cc1` (configuration not stated), the melting point was 136 to 139 °C. With `Clc1ccc(-c2nc3ccccc3n2-c2ccccc2)cc1`, the melting point was 139 to 141 °C. The molecule `Cc1nc(N2CCN(CC3CC3)C2=O)sc1-c1cc[nH]n1` showed a melting point of 169 to 171 °C. As for `O=C(Nc1ccccc1)N1CCC(CN2CCc3c([nH]c4ccccc34)C2)CC1`, the melting point was in the range of 207 to 209 °C. On to `CCc1nc(Cc2ccc(NC(=O)/C=C/c3cnn(C)c3-c3ccc(F)cc3)cc2)no1`, for which the melting point lay within 150 to 152 °C. The result for `O=C(NCCCCCCCCCCCNC(=O)c1ccc(OC(F)(F)F)cc1)c1ccc(OC(F)(F)F)cc1` reads 142 °C; that for `CS(=O)(=O)c1cc(C(=O)O)ccc1Oc1ccc(C(=S)Cc2ccc3ccccc3n2)cc1`, 210 to 214 °C; that for `C=CCc1c(C)cc(C)c(C(C)O)c1-c1ccc(F)cc1` (configuration not stated), 92 °C. In the case of `O=C1NC(=O)C(=Cc2ccc3c(c2)c2ccccc2n3Cc2ccc(-c3ccccc3)cc2)S1`, the melting point was more than 250 °C. The molecule `COc1ccc(CNc2nc(SC)ncc2C(=O)NCc2ccccn2)cc1Cl` gave a melting point of 143 to 144 °C.

As to `CC(C)(C)COc1ccc(N(CC(=O)O)C(=O)c2ccn(-c3ccc(F)cc3)c2)cc1C#N`, the melting point is 248 to 249 °C. Molecule `Cn1ncc(C(=O)N2CCOCC2)c1C(=O)Nc1ccn2nc(-c3cccnc3F)nc2c1` showed a melting point of 267 to 269 °C. The result for `COCc1cccc(OCCc2cnc(S)[nH]c2=O)c1` reads 117 to 119 °C; that for `CC(C)(C)OC(=O)c1cc(I)ccc1OCc1ccc2ccccc2c1`, 90 °C. Turning to `COC(=O)C(Cl)Cc1ccc(-n2c(=O)cc(C(F)(F)F)n(C)c2=O)c(F)c1` (configuration not stated), the melting point fell in the range of 101 to 103 °C. The result for `CCn1c(C(O)(c2cccc(C(F)(F)F)c2)c2cccc(C(F)(F)F)c2)nc(-c2ccncc2)c1-c1ccc(Cl)cc1` reads 193 to 195 °C. `Cc1c(CCC(=O)O)c2cc(Cl)ccc2n1Cc1ccc(Br)cc1` displayed a melting point of 154 to 155 °C.

The molecule `COc1nc2c(C)cc(C)cc2c(-c2ccccc2Cl)c1NC(=O)Nc1cccc(C(F)(F)F)c1` returned a melting point of 151 to 153 °C. With `CCOC(=O)c1nc(-c2ccc([N+](=O)[O-])c(C)c2)[nH]c1-c1ccc(OC)cc1`, the melting point was in the range of 187 to 191 °C.

`O=C(O)Cc1nn(Cc2ccc(Br)cc2F)c2ccccc12` displayed a melting point of 167 to 168 °C.

The molecule `CC(=O)NC1C(Oc2ncn(Cc3ccc([N+](=O)[O-])cc3)c2C(N)=O)OC(COC(C)=O)C(OC(C)=O)C1OC(C)=O` (configuration not stated) returned a melting point of 114 to 117 °C. Turning to `COc1cc(-c2c(Cl)c(CNC(C)(C)C)nc3sc4c(c23)CCNC4)ccc1OC(C)C`, the melting point is 157 to 158 °C. On to `CS(=O)(=O)c1ccc(-c2cnn(CC(F)(F)F)c(=O)c2-c2ccc(F)c(Cl)c2)cc1`, for which the melting point was in the range of 165 to 166 °C. `CCN(CC)CCN(c1ccc(C(=O)c2ccccc2)cc1)S(C)(=O)=O`: the melting point lay within 74 to 76 °C. With `CCCN(CCC)C(=O)Cc1ccc(OCC(=O)c2ccc(OC)cc2)c([N+](=O)[O-])c1`, the melting point was in the range of 95 to 97 °C. The result for `NC1=Nc2ccc([N+](=O)[O-])cc2C(c2ccccc2F)=NC1` reads 225 to 227 °C; that for `O=C(O)CCCCCCCSc1nc(-c2ccccc2)c(-c2ccccc2)[nH]1`, 160 to 162 °C. The result for `CCSc1cc(C)nc(SCC)c1NC(=O)CCCCCCSc1nc2c(C)c(Cl)cc(C(C)C)c2o1` reads 117 to 120 °C; that for `O=C(Nc1cccc(S(=O)(=O)N2CCCC2)c1)c1cnn2c(C(F)(F)F)cc(-c3ccc(Cl)cc3)nc12`, 252 °C.

Consider `c1ccc(COc2cccc3cc(C4=NCCS4)[nH]c23)cc1`, for which the melting point lay within 129 to 130 °C.

As for `Nc1nc2c(ncn2OC(CO)COCP(=O)(O)O)c(=O)[nH]1` (configuration not stated), the melting point was more than 300 °C. The result for `COC1CCC2(C)C(=CC(=O)C3C2CCC2(C)C(OC(C)=O)CCC32)C1` (configuration not stated) reads 168 to 170 °C; that for `Cc1cc(NC(=O)OC(C)(C)C)c(C)c(C)c1O`, 158 to 161 °C. Take `O=Cc1ccc2c(c1)CCC2`: the melting point fell in the range of 85 to 86 °C. In turn, `CCCCCCCCCCCCCCCCCCCCCCCCCCCCOC(=O)c1cccnc1` yielded a melting point of 65 to 70 °C. Molecule `COC(=O)/C=C/c1ccc(-c2nc(NC(C)=O)sc2Cc2ccc(S(C)(=O)=O)cc2)cc1` displayed a melting point of 217 to 218 °C. Molecule `O=C(CN1CSCC1=O)N1CCC(c2c[nH]c3ccccc23)CC1` displayed a melting point of 174 to 175 °C. The result for `Cc1c(C(=O)Nc2ccc(N3CCC(CCO)CC3)c(C#N)c2)cnn1-c1ccc(F)cc1` reads 186 °C. `O=C(NOCC(O)CN1CCCCC1)Nc1cccc([N+](=O)[O-])c1` (configuration not stated) gave a melting point of 137 to 139 °C. The result for `Cc1c(C(F)(F)F)cnn(-c2cc(OCC3CO3)c(Cl)cc2F)c1=O` (configuration not stated) reads 127 °C. For the molecule `CCCc1nc2c(N)nc3cc(O)ccc3c2s1`, the melting point lay in the range of 236 to 239 °C. `COc1ccc(C(Cl)=CC(=O)C(F)(F)C(F)(F)F)cc1OC`: the melting point was found to be 67 °C.

`CCCCOc1cc(/C=C(\OCC)C(=O)O)ccc1OCCc1ccc(N(C)C(C)=O)cc1`: the melting point is 121 °C. The molecule `Nc1nnc(-c2ccc3occ(-c4cccc(OC(F)(F)F)c4)c3c2)o1` returned a melting point of 182 to 183 °C. `Cn1c(CO)nc2cncnc21` showed a melting point of 122 to 125 °C. The result for `Nc1cn(C2OC(CO)C(O)C2O)nn1` (configuration not stated) reads 102 to 104 °C. `C=CC=CN(C(=O)CCl)c1c(C)cccc1C` showed a melting point of 88 °C. Turning to `CCOC(=O)c1cnoc1-c1ccc(Br)cc1`, the melting point lay in the range of 47 to 48 °C. `CC(=O)n1ccc(=O)c(O)c1C` showed a melting point of 152 to 160 °C. With `NC1=Nc2ccc(-c3cccc(Cl)c3)cc2C12CCCCC2`, the melting point is 118 to 120 °C. In the case of `O=C(O)c1cn(CCc2ccc(C(F)(F)F)cc2)c2cc(C3CC3)nn2c1=O`, the melting point was in the range of 225 to 230 °C. In turn, `CC(C)(C)OC(=O)N1C[C@@H](C=O)CC1=O` had a melting point of 120 to 122 °C.
